3 compounds from article PMC10629879 (Frontiers in drug delivery, 2022) can be followed below.

The test system of data set [1] is blood-brain barrier. The experiment in a line: In situ brain perfusion: 125I-insulin BBB transport (Ki) and vascular binding (Vi) after inhibitor pre-perfusion. In kind it is in vivo, mouse. Particulars: for effect on 125I-insulin transport (Ki) or vascular binding (Vi) (in words): whole brain or olfactory bulb. The procedure: Following anesthesia, the thoracic cavity was opened and the descending thoracic aorta was clamped and jugular veins were cut to allow blood to drain from the brain vascular space. A 26-gauge butterfly needle was inserted into the left ventricle of the heart and mice were pre-perfused with vehicle or inhibitor at a rate of 2 ml/min. Mice were perfused with vehicle (1% MeOH in Zlokovic buffer: 7.19 g/L NaCl, 0.3 g/L KCl, 0.28 g/L CaCl2, 2.1 g/L NaHCO3, 0.16 g/L KH2PO4, 0.17 g/L anhydrous MgCl2, 0.99 g/L D-glucose and 1% BSA) ± 5 μM monensin or 2 μg/ml filipin III. […] Mice were perfused for timepoints ranging from 0.5 to 5 min. Whole brains, olfactory bulbs, and the hypothalamus were collected, weighed, and measured for radioactivity in a gamma counter. Brain/perfusate ratios (μL/g) were calculated by dividing the cpm per Gram of tissue by the cpm per μL of perfusate and plotted against perfusion time.
Regression analysis and other statistical analyses were performed using Prism 8.0 (GraphPad Software Inc., San Diego, CA, United States). For microvessel binding assays, the means are reported with their standard error terms and compared by a Student’s t test was. p values less than 0.05 were considered statistically significant. For in situ brain perfusion studies, linear regressions were performed on the brain/serum or brain/perfusate ratios using GraphPad Prism software. Linear regression lines were compared statistically with the Prism 8.0 software package. They are reported with their correlation coefficients (r) and linear regression p values.

In data set [2] the test system is isolated mouse brain microvessels. The experiment in a line: 125I-insulin surface binding and internalization in isolated brain microvessels with endocytosis inhibitors. The class given is cell-based. Particulars: relative to vehicle; for amount of 125I-insulin internalized, difference vs vehicle (increase): inhibitor 15 min 37°C (monensin 10 μM, p = 0.079 not significant; CPZ 2.8 mM in 20% MeOH, p = 0.018), then 125I-insulin 15 min 37°C, cytoplasmic + membrane fraction; for microvessel surface binding of 125I-insulin, difference vs vehicle (increase): ~90 μg protein, inhibitor 15 min 37°C (monensin 10 μM; CPZ 2.8 mM in 20% MeOH), then 125I-insulin 400,000 CPM 15 min 37°C, acid-wash reversible binding, gamma counter, 2-3 biological replicates. The procedure: Whole brains were pooled and homogenized in chilled isolation buffer (DMEM, 25 mM HEPES, pH 7.4, 1% (w/v) dextran and 0.5% BSA) with a Dounce homogenizer. A range of 8–20 brains were pooled each experimental day. The homogenate was poured once through a 300 μm mesh, then twice through a 100 μm mesh. The filtrate was combined with an equivalent volume of chilled 40% dextran in isolation buffer and centrifuged at 3000 g for 30 min at 4°C. The pellet was resuspended in 1 ml of isolation buffer and pipetted twice through a 20 μm pluriStrainer® mesh (pluriSelect Life Science, Leipzig, Germany), before a final rinse with isolation buffer. […] The pellet was resuspended in 1 ml of PBS and spun at 500 g for 3 min at 4°C three times.
Briefly, the suspended pellet was evenly split between treatment groups, with two technical replicates per group. On average, each binding assay involved approximately 90 μg protein from the isolated microvessels in 40–45 μL. Each study was repeated with separate isolated microvessels for 2-3 biological replicates per study. Microvessels were treated with vehicle or an endocytosis inhibitor. Inhibitors were made up in incubation buffer and/or MeOH. Final concentrations for inhibitors include: monensin (10 μM), CPZ (2.8 mM in 20% MeOH), and filipin III (2 μg/ml in 0.2% MeOH) with respective vehicle MeOH controls. […] Samples were centrifuged at 10,000 g for 2 min at 4°C, and the supernatants were collected. The pellets were resuspended in incubation buffer, centrifuged at 4,225 g for 2 min at 4°C, and the supernatants were combined with the previous ones. The radioactivity in the pellets and combined supernatants were measured in a gamma counter (Wizard^2, PerkinElmer). In order to determine the amount of substrate bound to the cell surface, the pellet was resuspended in 400 μL of chilled acid wash buffer (0.2 M glycine, 0.15 M NaCl) to strip the surface of reversibly bound substrates on ice for 6 min, centrifuged at 4,225 g for 2 min at 4°C. The supernatant was collected and measured in a gamma counter as before to determine the amount of reversible binding (RB) at the plasma membrane, which we have called surface binding. To determine the amount of substrate internalized, the pellet was resuspended in 400 μL of chilled 1% BSA in deionized water and incubated for 1 h on ice to lyse the cells. The sample was centrifuged as before, the supernatant was collected, and the pellet was suspended again in 1% BSA and incubated on ice for 30 min. The sample was centrifuged, the supernatant was combined with the previous one, and both supernatant and pellet were measured in a gamma counter. […]
Percentages were calculated by dividing the measurement of interest (surface binding or internalization) by the total counts present in the sample and multiplying by 100. […]

The target in data set [3] is T1, insulin receptor (Mus musculus, UniProt P15208).
T1 construct: from tissue; host or cells: living mouse; brain vasculature (olfactory bulb and 10 dissected brain regions)
T1 sequence (P15208 28-748 limits assumed): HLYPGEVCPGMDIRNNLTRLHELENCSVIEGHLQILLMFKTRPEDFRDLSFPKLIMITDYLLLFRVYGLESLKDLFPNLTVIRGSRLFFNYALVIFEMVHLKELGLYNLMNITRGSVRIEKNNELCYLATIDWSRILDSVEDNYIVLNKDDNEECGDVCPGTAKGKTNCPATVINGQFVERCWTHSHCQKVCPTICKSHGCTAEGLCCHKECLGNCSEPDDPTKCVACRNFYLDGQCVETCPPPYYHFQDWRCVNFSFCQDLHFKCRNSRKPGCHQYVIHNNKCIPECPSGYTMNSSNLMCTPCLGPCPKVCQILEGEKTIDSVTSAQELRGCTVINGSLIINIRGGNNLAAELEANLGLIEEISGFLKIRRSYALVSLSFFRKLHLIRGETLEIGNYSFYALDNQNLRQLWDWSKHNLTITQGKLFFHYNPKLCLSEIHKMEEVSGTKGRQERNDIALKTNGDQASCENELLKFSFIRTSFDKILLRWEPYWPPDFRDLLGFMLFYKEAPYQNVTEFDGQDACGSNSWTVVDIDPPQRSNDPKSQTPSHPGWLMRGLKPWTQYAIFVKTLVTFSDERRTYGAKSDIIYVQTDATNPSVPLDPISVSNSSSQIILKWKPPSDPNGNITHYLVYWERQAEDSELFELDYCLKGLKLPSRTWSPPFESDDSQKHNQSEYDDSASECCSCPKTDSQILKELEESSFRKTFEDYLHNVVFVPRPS
T1 sequence (P15208 753-1372 partner limits assumed): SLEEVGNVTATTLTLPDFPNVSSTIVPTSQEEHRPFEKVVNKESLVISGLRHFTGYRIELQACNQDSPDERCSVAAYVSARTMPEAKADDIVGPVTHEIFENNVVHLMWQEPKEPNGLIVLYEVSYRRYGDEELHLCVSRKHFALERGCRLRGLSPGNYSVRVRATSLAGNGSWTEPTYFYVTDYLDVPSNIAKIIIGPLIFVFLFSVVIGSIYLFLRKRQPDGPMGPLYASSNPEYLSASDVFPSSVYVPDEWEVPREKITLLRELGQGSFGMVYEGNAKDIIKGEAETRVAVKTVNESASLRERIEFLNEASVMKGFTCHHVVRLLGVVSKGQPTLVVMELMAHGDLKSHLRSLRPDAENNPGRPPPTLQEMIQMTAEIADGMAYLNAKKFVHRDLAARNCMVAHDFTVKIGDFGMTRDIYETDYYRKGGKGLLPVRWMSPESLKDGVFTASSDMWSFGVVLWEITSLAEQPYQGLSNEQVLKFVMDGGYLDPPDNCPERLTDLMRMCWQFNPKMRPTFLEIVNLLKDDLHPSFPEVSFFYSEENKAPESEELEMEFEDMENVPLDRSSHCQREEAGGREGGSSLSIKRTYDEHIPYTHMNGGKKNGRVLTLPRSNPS
As to the kind of experiment: In vivo regional 125I-S961 binding at the BBB after IV monensin pre-treatment. The conditions noted are these: 30 min IV pre-treatment, 100 μL of 50 μM monensin in 10% MeOH in 0.1% BSA/LR; 125I-S961 circulated 5 min; olfactory bulb and 10 brain regions; two-way ANOVA treatment p = 0.0008, no post hoc differences; n = 6/group. The procedure: In anesthetized mice, the jugular vein was exposed and a 100 μL IV injection containing vehicle (10% MeOH in 0.1% BSA/LR) or monensin (50 μM in 10% MeOH in 0.1% BSA/LR) was administered. Thirty min later, a second 100 μL IV injection containing 1 × 10^6 ^125I-[…] was administered and circulated for 5 min. Blood was collected from the descending aorta, the olfactory bulbs and whole brains removed, and whole brains dissected into 10 brain regions according to the method by [Glowinski and Iversen, (1966)]. The amount of radioactivity in each region was counted in a gamma counter (Wizard^2, PerkinElmer) and corrected for the % injected ^125I-[…] (based on injection checks) and divided by the weight of the tissue (g) to get %Inj/g levels.

In data set [4] the test system is blood-brain barrier. The class given is in vivo, mouse. The conditions noted are these: 50 μM monensin IV pre-treatment 30 min vs vehicle. As to the method:
The reaction started with the addition of 10 μg chloramine-T in 0.25 M PB and terminated 1 min later with addition of 100 μg sodium metabisulfite. ^131I-albumin was labeled was labeled the same way except used 2 mCi ^131I (Perkin-Elmer, Waltham, MA, United States). ^131I-albumin was used as a vascular marker for the ^125I-transferrin multiple-time regression analysis transport studies as previously described ([Rhea et al., 2018]). A Sephadex G-10 column (Sigma-Aldrich) was used to separate labeled peptides and proteins from free iodine. Protein labeling was characterized by 15% trichloroacetic acid (TCA) precipitation. The radioactively labeled substrates we injected were quality-controlled materials, negating the overestimation of free ^125I.
FIGURE 3 Role of clathrin in transferrin hypothalamic BBB transport.

[5] abbreviates: hypothalamus, 2 μg/ml filipin pre-perfusion 10 min.
Setting [6] is: olfactory bulb, 2 μg/ml filipin pre-perfusion 10 min.
[7] abbreviates: whole brain, 2 μg/ml filipin pre-perfusion 10 min.

For the compound `CCCCC[C@@H](O)[C@H]1C(=O)O[C@H](C)[C@@H](O)/C=C/C=C/C=C/C=C/C=C(\C)[C@@H](O)C[C@H](O)C[C@H](O)C[C@H](O)C[C@H](O)C[C@H](O)C[C@@H]1O` [Filipin, Filipin III], the “Vi of 125I-insulin” value in data set [1] (setting [5]) came out at 8.4 ± 2.3 µL/g; in data set [1] (setting [6]) it was 2.8 ± 3.0 µL/g; in data set [1] (setting [7]), 5.0 ± 1.5 µL/g. For the same compound, the “effect on 125I-insulin transport (Ki) (in words)” value in data set [1] (setting [5]) is on record as “does limit transport”. The “Ki of 125I-insulin” value turned out to be 0.94 ± 0.66 µL/g/min in data set [1] (hypothalamus, 2 μg/ml filipin pre-perfusion 10 min, ns, slope did not significantly differ from zero); 0.94 ± 0.43 µL/g/min in data set [1] (hypothalamus, 2 μg/ml filipin pre-perfusion 10 min, ns, slope did not significantly differ from zero, listed as filipin); 3.06 ± 0.93 µL/g/min in data set [1] (setting [6]); 0.94 ± 0.43 µL/g/min in data set [1] (setting [7]). Moreover, in data set [1] (2 μg/ml filipin pre-perfusion 10 min), the “effect on 125I-insulin transport (Ki) or vascular binding (Vi) (in words)” value was “no effect”.
For the compound `CC[C@@]1([C@@H]2O[C@@H]([C@H]3O[C@@](O)(CO)[C@H](C)C[C@@H]3C)C[C@@H]2C)CC[C@H]([C@]2(C)CC[C@]3(C[C@H](O)[C@@H](C)[C@@H]([C@@H](C)[C@@H](OC)[C@H](C)C(=O)O)O3)O2)O1` [Monensin], in data set [2], the “amount of 125I-insulin internalized, difference vs vehicle (increase)” value stood at 33.7% and the “microvessel surface binding of 125I-insulin, difference vs vehicle (increase)” value is given as 36.3%. The “125I-S961 binding (%Inj/g), effect of pre-treatment (in words)” value in data set [3] is reported as “significantly increased”. In addition, the “decrease in hypothalamic BBB transport of 125I-transferrin” value in data set [4] is given as 80%. The “effect on 125I-insulin transport (Ki) or vascular binding (Vi) (in words)” value in data set [1] (5 μM monensin pre-treatment 10 min) was “no effect”.
As for `CN(C)CCCN1c2ccccc2Sc2ccc(Cl)cc21` [CPZ, chlorpromazine], in data set [2], the “amount of 125I-insulin internalized, difference vs vehicle (increase)” value is 76.9% and the “microvessel surface binding of 125I-insulin, difference vs vehicle (increase)” value is listed as 42.2%.
